The record followed here is patent publication US10407408B2, “Imide derivatives and use thereof as medicine” (MITSUBISHI TANABE PHARMA CORPORATION, priority 2015, dated 2019).

For the test, the system named is proMMP-9 production by human TNFα stimulated THP-1 cell. Put plainly: Action on proMMP-9 production by human TNFα stimulated THP-1 cell (ELISA of culture supernatant). To be noted: THP-1 cells, human TNFα 10 ng/mL, 24 hr; IC50 from 3 concentrations (5, 50, 500 or 1, 10, 100 nmol/L); read-out: proMMP-9 suppression rate IC50. The class given is cell-based. How it is done: Experimental Example 1: Action of Human TNFα Stimulated THP-1 Cell on proMMP-9 Production
THP-1 cell (human monocytic leukemia cell line) was adjusted to 1×10^7 cells/mL in a culture medium (10% fetal bovine serum/RPMI1640 medium), and dispensed to a 96 well multiplate. This was equilibrated under the conditions of 37° C./5% CO2, and a culture medium containing human TNFα (final concentration 10 ng/mL) and a test compound was dissolved therein. After incubation under the conditions of 37° C./5% CO2 for 24 hr, the culture medium was centrifuged and the culture supernatant was collected, which was subjected to the following measurement.
Quantification of proMMP-9 in Culture Supernatant
The proMMP-9 concentration of the collected culture supernatant was quantified using a commercially available measurement reagent (manufactured by GE Healthcare, MMP-9, Human, Biotrak ELISA System).
Calculation of proMMP-9 Suppression Rate
The proMMP-9 suppression rate of the test compound was calculated from the following formula: % suppression=100−((Test−Min)/(Max−Min)×100) wherein Max is proMMP-9 concentration of culture supernatant induced by stimulation with human TNFα, without addition of a test compound (added with solvent alone) Min is proMMP-9 concentration of culture supernatant without addition of a test compound (added with solvent alone) and without stimulation with human TNFα, and Test is proMMP-9 concentration of culture supernatant induced by stimulation with human TNFα when a test compound is added.
Furthermore, the concentration of the test compound necessary for suppressing proMMP-9 production by human TNFα stimulated THP-1 cell by 50% (IC50 value) was calculated from 3 points of proMMP-9 suppression rate at test compound concentrations of 5, 50 and 500 nmol/L or 1, 10 and 100 nmol/L.
MMP-9 is produced as a precursor proMMP-9 by the stimulated cells, extracellularly activated and expresses the physiological activity as MMP-9. That is, evaluation of the suppression of proMMP-9 produced by the cell means evaluation of the suppression of production of MMP-9. The same applies to MMP-2, and evaluation of the suppression of proMMP-2 produced by the cell means evaluation of the suppression of production of MMP-2.

Counter-ions that a name gives are not always drawn.

Take `CC[C@]1(c2ccc(C(=O)N3CCC(c4nnn(-c5ccc(C)cc5)n4)CC3)cc2)NC(=O)NC1=O` [Example 170, (R)-5-ethyl-5-{4-[4-(2-p-tolyl-2H-tetrazol-5-yl)piperidine-1-carbonyl]phenyl}imidazolidine-2,4-dione]: the IC50 is 0.06 µM. For the compound `Cc1cnc2c(c1)CCN2[C@H]1CCN(C(=O)c2ccc([C@@]3(C(C)C)NC(=O)NC3=O)cc2)C1` [Example 158, (R)-5-isopropyl-5-{4-[(S)-3-(5-methyl-2,3-dihydropyrrolo[2,3-b]pyridin-1-yl)pyrrolidine-1-carbonyl]phenyl}imidazolidine-2,4-dione], the IC50 was 0.049 µM. As for `Cc1cc(C2CC2)cnc1N1CCN(C(=O)c2ccc(C3(C4CCC4)NC(=O)NC3=O)cc2)CC1` (centres unmarked) [Example 322, 5-cyclobutyl-5-{4-[4-(5-cyclopropyl-3-methylpyridin-2-yl)piperazine-1-carbonyl]phenyl}imidazolidine-2,4-dione], the IC50 is less than 0.001 µM. The result for `CC[C@]1(c2ccc(C(=O)N3CCC(c4cnn(-c5ccc(C)cc5)c4)CC3)cc2)NC(=O)NC1=O` [Example 27, (R)-5-ethyl-5-{4-[4-(1-p-tolyl-1H-pyrazol-4-yl)piperidine-1-carbonyl]phenyl}imidazolidine-2,4-dione] reads 0.016 µM; that for `CCC1(c2ccc(C(=O)N3CCC(c4cc(-c5ccc(C)cc5)[nH]n4)CC3)cn2)CC(=O)NC1=O` (centres unmarked) [Example 165, 3-ethyl-3-{5-[4-(5-p-tolyl-1H-pyrazol-3-yl)piperidine-1-carbonyl}pyridin-2-yl}pyrrolidine-2,5-dione], 0.09 µM. `Cc1cnc(N2CCN(C(=O)c3ccc(C4(CF)NC(=O)NC4=O)cc3)C(C)(C)C2)c(C)c1` (centres unmarked) [Example 69, 5-{4-[4-(3,5-dimethylpyridin-2-yl)-2,2-dimethylpiperazine-1-carbonyl]phenyl}-5-fluoromethylimidazolidine-2,4-dione]: the IC50 was found to be 0.011 µM. Consider `COC1(C2(c3ccc(C(=O)N4CCN(c5ncc(C)cc5C)CC4)cc3)NC(=O)NC2=O)CC1` (centres unmarked) [Example 112, 5-{4-[4-(3,5-dimethylpyridin-2-yl)piperazine-1-carbonyl]phenyl}-5-(1-methoxycyclopropyl) imidazolidine-2,4-dione], for which the IC50 is 0.011 µM. With `CC(=O)OCN1C(=O)N[C@](C)(c2ccc(C(=O)N3CCC(n4cc5cc(C)cc(C)c5n4)CC3)cc2)C1=O` [Example 350, acetic acid (R)-4-{4-[4-(5,7-dimethylindazol-2-yl)piperidine-1-carbonyl]phenyl]-4-methyl-2,5-dioxoimidazolidin-1-ylmethyl ester], the IC50 worked out at 0.115 µM. Take `CC(C)[C@]1(c2ccc(C(=O)N3CCC(c4ncc(-c5ccccc5)s4)CC3)cc2)NC(=O)NC1=O` [Example 259, (R)-5-isopropyl-5-{4-[4-(5-phenylthiazol-2-yl)piperidine-1-carbonyl]phenyl}imidazolidine-2,4-dione]: the IC50 is 0.06 µM. `Cc1nnc(N2CCN(C(=O)c3ccc([C@@]4(C(C)C)NC(=O)NC4=O)cc3)CC2)c(C)c1C` [Example 141, (R)-5-isopropyl-5-{4-[4-(4,5,6-trimethylpyridazin-3-yl)piperazine-1-carbonyl]phenyl}imidazolidine-2,4-dione]: the IC50 was found to be 0.07 µM.

Turning to `Cc1cc(C)c2c(cnn2C2CCN(C(=O)c3ccc([C@@]4(C(C)C)NC(=O)NC4=O)cc3)CC2)c1` [Example 272, (R)-5-{4-[4-(5,7-dimethylindazol-1-yl)piperidine-1-carbonyl]phenyl}-5-isopropylimidazolidine-2,4-dione], the IC50 is less than 0.005 µM. Consider `Cc1cnc(N2CCN(C(=O)c3ccc(C4(C(C)C)NC(=O)NC4=O)s3)CC2)c(C)c1` (centres unmarked) [Example 114, 5-{5-[4-(3,5-dimethylpyridin-2-yl)piperazine-1-carbonyl]thiophen-2-yl}-5-isopropylimidazolidine-2,4-dione], for which the IC50 came to 0.082 µM.

Take `Cc1cnc(NC2CN(C(=O)c3ccc([C@@]4(C(C)C)NC(=O)NC4=O)cc3)C2)c(C)c1` [Example 185, (R)-5-{4-[3-(3,5-dimethylpyridin-2-ylamino)azetidine-1-carbonyl]phenyl}-5-isopropylimidazolidine-2,4-dione.hydrochloride]: the half-maximal inhibitory concentration (IC50) came to 0.082 µM. As to `CC(C)[C@]1(c2ccc(C(=O)N3CCN(c4nc5ccccc5n4C)CC3)cc2)NC(=O)NC1=O` [Example 243, (R)-5-isopropyl-5-{4-[4-(l-methyl-1H-benzimidazol-2-yl)piperazine-1-carbonyl]phenyl}imidazolidine-2,4-dione], the IC50 is 0.027 µM. For the compound `Cc1cnc(N2CCN(C(=O)c3ccc(C4(C(C)C)C(=O)NC(=O)N4C)cc3)CC2)c(C)c1` (centres unmarked) [Example 182, 5-{4-[4-(3,5-dimethylpyridin-2-yl)piperazine-1-carbonyl]phenyl}-5-isopropyl-1-methylimidazolidine-2,4-dione], the IC50 came out at 0.067 µM. `Cc1ccc(-c2cnn(C3CCN(C(=O)c4ccc([C@@]5(C)NC(=O)NC5=O)cc4)CC3)c2)cc1` [Example 346, (R)-5-methyl-5-{4-[4-(4-p-toluylpyrazol-1-yl)piperidine-1-carbonyl]phenyl}imidazolidine-2,4-dione]: the IC50 amounted to 0.088 µM.

On to `Cc1cnc2nc(C3CCN(C(=O)c4ccc([C@@]5(C(C)C)NC(=O)NC5=O)cc4)CC3)sc2c1` [Example 220, (R)-5-isopropyl-5-{4-[4-(6-methylthiazolo[4,5-b]pyridin-2-yl)piperidine-1-carbonyl]phenyl}imidazolidine-2,4-dione], for which the IC50 is 0.055 µM. As to `CC[C@]1(c2ccc(C(=O)N3CCC(c4cn(-c5ccc(C)cc5)cn4)CC3)cc2)NC(=O)NC1=O` [Example 175, (R)-5-ethyl-5-{4-[4-(1-p-tolyl-1H-imidazol-4-yl)piperidine-1-carbonyl]phenyl}imidazolidine-2,4-dione], the IC50 came to 0.088 µM. Regarding `Cc1cnc(N2CCN(C(=O)c3ccc(C4(C(C)(C)C)NC(=O)NC4=O)cc3)CC2)c(C)n1` (centres unmarked) [Example 137, 5-tert-butyl-5-[4-(3′,5′-dimethyl-2,3,5,6-tetrahydro[1,2′]bipyrazinyl-4-carbonyl)phenyl]imidazolidine-2,4-dione], the IC50 was 0.014 µM. In the case of `Cc1cnc(N[C@@H]2CN(C(=O)c3ccc([C@@]4(C(C)C)NC(=O)NC4=O)cc3)C[C@H]2O)c(C)c1` [Example 187, (R)-5-{4-[(3R,4R)-3-(3,5-dimethylpyridin-2-ylamino)-4-hydroxypyrrolidine-1-carbonyl]phenyl}-5-isopropylimidazolidine-2,4-dione], the half-inhibitory concentration (IC50) was 0.019 µM. Take `Cc1ccc2c(C3CCN(C(=O)c4ccc([C@@]5(C)NC(=O)NC5=O)cc4)CC3)c[nH]c2c1` [Example 345, (R)-5-methyl-5-{4-[4-(6-methyl-1H-indol-3-yl)piperidine-1-carbonyl]phenyl}imidazolidine-2,4-dione]: the IC50 was 0.015 µM.

With `Cc1cnc(N2CCN(C(=O)c3ccc(C4(C(C)C)NC(=O)NC4=O)c(O)c3)CC2)c(C)c1` (centres unmarked) [Example 20, 5-{4-[4-(3,5-dimethylpyridin-2-yl)piperazine-1-carbonyl]-2-hydroxyphenyl}-5-isopropylimidazolidine-2,4-dione], the IC50 was found to be 0.006 µM.

As for `CC[C@]1(c2ccc(C(=O)N3CCN(c4ncc(C)cc4C)CC3)cc2)NC(=O)NC1=O` [Example 124, (R)-5-{4-[4-(3,5-dimethylpyridin-2-yl)piperazine-1-carbonyl]phenyl}-5-ethylimidazolidine-2,4-dione], the IC50 was 0.001 µM.
